Like-named read-outs stand apart in the source and are kept apart here.
Columns and labels:
[1] = in vivo; details: rat, in vivo, po
Procedure: (§1) The incidence of gastric disorders in rats was tested as follows: Eight-weeks-old male rats of the Wistar strain were used in groups of 5 to 7. After they were fasted for 18 hours or more, a test compound was administered orally. Six hours later, each rat was sacrificed by decapitation. The stomach was removed, filled with 10 ml of physiological saline, and then fixed in 5% formalin. After about 10 minutes, the stomach was incised through the greater curvature and the presence or absence of gastric disorders (in particular, erosion) was examined by visual observation. According to Litchfield-Wilcoxon's method, the dose causing erosion to occur in 50% of the test animals, UD50, was calculated on an all-or-none basis.

[2] = tested on: carrageenin-induced edema; assay: Carrageenin-induced edema suppression in rats (anti-inflammatory activity); assay type: in vivo, rat (male, Wistar strain); details: for ED50: read-out: Anti-inflammatory activity, ED50
Procedure: Anti-inflammatory activity was tested as follows: Male rats of the Wistar strain were used in groups of 7. A test compound was suspended in a 0.2% carboxymethyl cellulose solution and orally administered in a dose of 0.5 ml/100 g of body weight. […] Three hours after injection of carrageenin, each rat was sacrificed by ether. The feet of both hind legs were amputated at the ankle joint and weighed to detect the difference in weight between both feet. Then, the ability of the test compound to suppress the carrageenin-induced edema was evaluated by comparing the foot weight difference of the test group with that of a control group (consisting of rats to which the solvent alone was administered). Specifically, the rate of suppression of the edema was calculated according to the following equation: [formula]

[3] = tested on: carrageenin-induced edema; assay: Duration of anti-inflammatory activity (carrageenin edema, varied premedication time); assay type: in vivo, rat (male, Wistar strain); details: for Rate of suppression of edema: dose = ED50
Source text: The premedication time was defined as the time interval between the administration of a test compound and the injection of carrageenin.

[4] = cited from earlier work
[5] = in vivo; details: mouse, in vivo, po
Procedure: (§2) A test compound was suspended in a 0.2% carboxymethyl cellulose solution and orally administered in a dose of 0.1 ml/10 g of body weight. […] The LD50 value was calculated on the basis of the death rates on the final day.

[6] = tested on: mice; assay: in vivo; details: for Number of deaths/total number of test animals: p.o.
Procedure: as §2

[7] = tested on: stomach (gastric disorders, erosion); assay: Incidence of gastric disorders (erosion) in rats; details: Table 1; ratio of UD50 (gastric) to ED50 (edema)
Procedure: as §1

[8] = Table 1; literature value: Pharmacometrics, 6(6), 1285 (1972) for indomethacin; Folia Pharmacologica Japonica, 69, 319 (1973) for diclofenac; cited from earlier work
[9] = 3 h, Table 1, rat, oral, carrageenin edema
[10] = Rattus norvegicus, po, 3 h, p.o., read-out: Rate of suppression of edema
[11] = Rattus norvegicus, po, 3 h, read-out: Rate of suppression of edema
[12] = Rattus norvegicus, po, 3 h, 1.25 mg/kg, p.o., read-out: Rate of suppression of edema
[13] = Rattus norvegicus, po, 3 h, 2.5 mg/kg, p.o., read-out: Rate of suppression of edema
[14] = Rattus norvegicus, po, 3 h, 5.0 mg/kg, p.o., read-out: Rate of suppression of edema

Row | SMILES | TD50 at 6 h [1] [mg/kg] | ED50 [2, 9] [mg/kg] | Rate of suppression of edema ([3]; premedicated 1 hr.) [%] | Rate of suppression of edema ([3]; premedicated 3 hr.) [%] | Rate of suppression of edema ([3]; premedicated 6 hr.) [%] | Rate of suppression of edema ([3]; premedicated 24 hr.) [%] | Rate of suppression of edema ([3]; premedicated 12 hr.) [%] | Rate of suppression of edema ([3]; premedicated 48 hr.) [%] | Anti-inflammatory activity (in words) ([4]; prior art) | LD50 at 168 h [5] [mg/kg] | other results
1 | Cc1cccc(NC(=O)C2C(=O)c3ccccc3S(=O)(=O)N2C)n1 (stereo not shown) [6-Methyl-2-pyridyl compound, N-(6-methyl-2-pyridyl)-3,4-dihydro-2-methyl-4-oxo-2H-1,2-benzothiazine-3-carboxamide 1,1-dioxide] | 5.1 | 4.5 |  |  |  |  |  |  |  |  | inhibition in vivo at 1.75 mg/kg ([2]; Rattus norvegicus, po, 3 h, 1.75 mg/kg, p.o., read-out: Rate of suppression of edema): 27.4%; inhibition in vivo at 6.5 mg/kg [2, 10]: 58.9%
2 | O=C(O)Cc1ccccc1Nc1c(Cl)cccc1Cl [Diclofenac, diclofenac] | 9.2 |  | 45.9 | 24.7 | 17.6 | -1.2 |  |  |  |  | ED50 ([2]; Rattus norvegicus, po, 3 h): 5 mg/kg; inhibition in vivo at 2.5 mg/kg [2, 11]: 29.7%; inhibition in vivo at 5 mg/kg [2, 11]: 48.5%; inhibition in vivo at 10 mg/kg [2, 11]: 69.3%
3 | Cc1cc(NC(=O)C2C(=O)c3ccccc3S(=O)(=O)N2C)no1 (stereo not shown) [Isoxicam, 3,4-dihydro-2-methyl-N-(5-methyl-3-isoxazolyl)-4-oxo-2H-1,2-benzothiazine-3-carboxamide 1,1-dioxide] | 250 | 15.5 | 54.2 | 54.2 | 45.8 | 19.5 | 36.3 | 1.1 | lower than that of Piroxicam and Sudoxicam | 5000 | inhibition in vivo at 3.75 mg/kg ([2]; Rattus norvegicus, po, 3 h, 3.75 mg/kg, p.o., read-out: Rate of suppression of edema): 7.5%; inhibition in vivo at 7.5 mg/kg ([2]; Rattus norvegicus, po, 3 h, 7.5 mg/kg, p.o., read-out: Rate of suppression of edema): 32.3%; inhibition in vivo at 15 mg/kg ([2]; Rattus norvegicus, po, 3 h, 15.0 mg/kg, p.o., read-out: Rate of suppression of edema): 46.8%; inhibition in vivo at 30 mg/kg ([2]; Rattus norvegicus, po, 3 h, 30.0 mg/kg, p.o., read-out: Rate of suppression of edema): 69.4%; Degree of toxicity and incidence of gastric disorders (in words) ([4]; in vivo): relatively low
4 | CN1C(C(=O)Nc2cccc(F)n2)C(=O)c2ccccc2S1(=O)=O (stereo not shown) [Compound of formula (1), N-(6-fluoro-2-pyridyl)-3,4-dihydro-2-methyl-4-oxo-2H-1,2-benzothiazine-3-carboxamide 1,1-dioxide] | 297 | 7.5 | 56.6 | 54.8 | 43.2 | 20.7 | 39.1 | 3.4 |  | > 5000 | Duration of anti-inflammatory activity (in words) ([3]; from Table 3): excellent in the duration of anti-inflammatory activity; inhibition in vivo at 2 mg/kg ([2]; Rattus norvegicus, po, 3 h, 2.0 mg/kg, p.o., read-out: Rate of suppression of edema): 20%; inhibition in vivo at 4 mg/kg ([2]; Rattus norvegicus, po, 3 h, 4.0 mg/kg, p.o., read-out: Rate of suppression of edema): 32%; inhibition in vivo at 8 mg/kg ([2]; Rattus norvegicus, po, 3 h, 8.0 mg/kg, p.o., read-out: Rate of suppression of edema): 54.6%; inhibition in vivo at 16 mg/kg ([2]; Rattus norvegicus, po, 3 h, 16.0 mg/kg, p.o., read-out: Rate of suppression of edema): 66.6%; Anti-inflammatory activity (in words) ([2]; summary of results): potent and long-lasting anti-inflammatory activity; Number of deaths/total number of test animals ([6]; 3,000 mg/kg): 0/5; Number of deaths/total number of test animals ([6]; 4,000 mg/kg): 0/5; Number of deaths/total number of test animals ([6]; 5,000 mg/kg): 0/5; Acute toxicity, LD50 ([6]; Table 1, mouse, oral, 7 days): > 5,000 mg/kg; Degree of safety (in words) ([6]; mouse, in vivo): very high degree of safety
5 | CN1C(C(=O)Nc2nccs2)C(=O)c2ccccc2S1(=O)=O (stereo not shown) [Sudoxicam, 3,4-dihydro-2-methyl-4-oxo-N-(2-thiazolyl)-2H-1,2-benzothiazine-3-carboxamide 1,1-dioxide] | 11.8 | 5.1 | 49.8 | 52.1 | 39.5 | 10.4 | 31.6 | -2.4 | potent and long-lasting anti-inflammatory activity | 500 | Therapeutic index, UD50/ED50 [7]: 2.3; inhibition in vivo at 1.25 mg/kg [2, 12]: 14.9%; inhibition in vivo at 2.5 mg/kg [2, 13]: 30.7%; inhibition in vivo at 5 mg/kg [2, 14]: 45.5%; inhibition in vivo at 10 mg/kg ([2]; Rattus norvegicus, po, 3 h, 10.0 mg/kg, p.o., read-out: Rate of suppression of edema): 69.3%; Degree of toxicity and incidence of gastric disorders (in words) ([4]; prior art): not appreciably different from those of indomethacin and diclofenac; Number of deaths/total number of test animals ([6]; 200 mg/kg): 0/5; Number of deaths/total number of test animals ([6]; 400 mg/kg): 2/5; Number of deaths/total number of test animals ([6]; 800 mg/kg): 4/5; Number of deaths/total number of test animals ([6]; 1,000 mg/kg): 5/5; Therapeutic index and safety margin (in words) ([6]; from Table 1): superior in therapeutic index and safety margin to indomethacin and diclofenac; selectivity ratio [5]: 98
6 | CN1C(C(=O)Nc2ccc(Cl)cn2)C(=O)c2ccccc2S1(=O)=O (stereo not shown) [5-Chloro-2-pyridyl compound, N-(5-chloro-2-pyridyl)-3,4-dihydro-2-methyl-4-oxo-2H-1,2-benzothiazine-3-carboxamide 1,1-dioxide] |  |  |  |  |  |  |  |  |  |  | inhibition in vivo at 6.5 mg/kg [2, 10]: 18.9%
7 | COc1ccc2c(c1)c(CC(=O)O)c(C)n2C(=O)c1ccc(Cl)cc1 [Indomethacin, indomethacin] | 5.4 |  | 49.4 | 57.6 | 29.4 | -3.5 | 18.8 |  |  |  | Therapeutic index, UD50/ED50 [7]: 1.2; ED50 ([2]; Rattus norvegicus, po, 3 h): 4.6 mg/kg; inhibition in vivo at 1.25 mg/kg [2, 11]: 19.3%; inhibition in vivo at 2.5 mg/kg [2, 11]: 22.8%; inhibition in vivo at 5 mg/kg [2, 11]: 57.4%; inhibition in vivo at 10 mg/kg [2, 11]: 73.3%; selectivity ratio [5]: 3.7; Acute toxicity, LD50 [8]: 17 mg/kg
8 | CN1C(C(=O)Nc2ccccn2)C(=O)c2ccccc2S1(=O)=O (stereo not shown) [Piroxicam, 3,4-dihydro-2-methyl-4-oxo-N-(2-pyridyl)-2H-1,2-benzothiazine-3-carboxamide 1,1-dioxide] | 8.2 | 1.75 | 57.6 | 55.3 | 40.0 | 15.3 | 38.8 | 1.7 | potent and long-lasting anti-inflammatory activity | 490 | inhibition in vivo at 0.625 mg/kg ([2]; Rattus norvegicus, po, 3 h, 0.625 mg/kg, p.o., read-out: Rate of suppression of edema): 26.9%; inhibition in vivo at 1.25 mg/kg [2, 12]: 42.5%; inhibition in vivo at 2.5 mg/kg [2, 13]: 57%; inhibition in vivo at 5 mg/kg [2, 14]: 76.4%; Degree of toxicity and incidence of gastric disorders (in words) ([4]; in vivo): not appreciably different from those of indomethacin and diclofenac

From patent US4376119A, “Benzothiazine derivative” (priority 1981, dated 1983)
